Measurements from patent publication US20040106540A1, “Method of treating cancer” (priority 2003, published 2004).

Assays:
Assay type in all cases: biochemical
PKC (mix of isoforms) = assay: PKC assay (counter screen), myelin basic protein phosphorylation; conditions: read-out: Counter screens IC50 (μM) PKC
Description: Each PKC assay consists of the following components:
1) 5 μl 10×PKC co-activation buffer (2.5 mM EGTA, 4 mM CaCl2)
2) 10 μl 5×PKC activation buffer (1.6 mg/ml phosphatidylserine, 0.16 mg/ml diacylglycerol, 100 mM Tris pH 7.5, 50 mM MgCl, 5 mM 2-mercaptoethanol)
3) 5 μl ^33P-ATP (prepared by diluting 1.0 μl ^33P-ATP [10 mCi/nil] into 100 μl of a 100 μM stock of unlabeled ATP)
4) 10 μl of a 350 μg/ml stock of myelin basic protein (MBP, UBI) diluted in water
5) 10 μl appropriate solvent control or inhibitor dilution
Final assay concentrations were as follows: 0.25 mM EGTA, 0.4 mM CaCl, 20 mM Tris pH 7.5, 10 mM MgCl, 1 mM 2-mercaptoethanol, 0.32 mg/ml phosphatidylserine, 0.032 mg/mil diacylglycerol, 10 μM 33P-ATP, 70 μg/ml MBP, 10 ng/ml PKC, 0.1 mg/ml BSA.
Assays are performed using 96 deep well assay plates. In each assay well 10 μl of solvent control or appropriate inhibitor dilution with 5 μl ^33P-ATP (components #5 and #3) were premixed. […] The liquid in the assay wells was thoroughly mixed and the assay reactions incubated for 20 minutes at room temperature. The reactions were stopped by adding 100 mM EDTA (50 μl) and 100 mM sodium pyrophosphate (50 μl) and mixing. Phosphorylated MBP was collected on PVDF membranes in 96 well filter plates and quantitated by scintillation counting.

active human Akt1 = molecular target: T1, active human Akt1 (Homo sapiens, UniProt P31749); assay: Akt kinase assay, phosphorylation of GSK3-derived peptide; conditions: GSK3 peptide substrate; read-out: GSK3 Peptide Substrate IC50 (μM) Akt-1
T1 construct: purchased Upstate Biotechnology 14-276
T1 sequence (P31749 whole entry): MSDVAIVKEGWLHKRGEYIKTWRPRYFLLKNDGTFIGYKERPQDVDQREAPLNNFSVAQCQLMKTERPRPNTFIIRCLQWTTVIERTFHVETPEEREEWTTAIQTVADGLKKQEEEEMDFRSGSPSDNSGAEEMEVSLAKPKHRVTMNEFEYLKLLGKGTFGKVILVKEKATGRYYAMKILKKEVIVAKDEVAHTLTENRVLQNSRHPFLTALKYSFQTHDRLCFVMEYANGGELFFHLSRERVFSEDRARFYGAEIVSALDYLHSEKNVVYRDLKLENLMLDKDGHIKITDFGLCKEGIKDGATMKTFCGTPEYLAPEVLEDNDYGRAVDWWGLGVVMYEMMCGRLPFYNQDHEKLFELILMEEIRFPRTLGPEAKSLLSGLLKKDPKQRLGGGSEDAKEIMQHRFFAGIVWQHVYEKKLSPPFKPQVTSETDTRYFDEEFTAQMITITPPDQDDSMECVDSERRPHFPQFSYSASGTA
Excerpt: (§1) The ^33P-labeled biotinylated product can be captured and detected using Streptavidin coated Flashplates (NEN LifeSciences) or Streptavidin Membrane Filter Plates (Promega).
(§2) GSK3α (S21) Peptide #3928, biotin-[…] PG (SEQ.ID.NO.: 15), FW=1517.8 (obtained from Macromolecular Resources) for Streptavidin Flashplate or Streptavidin Filter Plate detection.
(§3) GSK3α (S21) Peptide #G80613, […] (SEQ.ID.NO.: 16), FW=1547.8 (obtained from Research Genetics) for Phosphocellulose filter plate detection.
(§4) The reactions were then incubated at room temperature for 45 minutes.
(§5) 200 μl of stopped reaction was transferred to a Streptavidin Flashplate® PLUS (NEN Life Sciences, catalog no. SMP103). The plate was incubated for ≧10 minutes at room temperature on a plate shaker. The contents of each well was aspirated, and the wells rinsed 2 times with 200 μl TBS per well. The wells were then washed 3 times for 5 minutes with 200 μl TBS per well with the plates incubated at room temperature on a platform shaker during wash steps.
(§6) The plates were covered with sealing tape and counted using the Packard TopCount with the appropriate settings for counting [^33P] in Flashplates.
(§7) The enzymatic reactions as described in Step I of the Streptavidin Flash Plate Assay above were performed.
(§8) The reaction was stopped by adding 20 μl of 7.5M Guanidine Hydrochloride.
(§9) The plate was then washed using a vacuum manifold as follows: 1) 4×200 μl/well of 2M NaCl; 2) 6×200 μl/well of 2M NaCl with 1% H3PO4; 3)2×200 μl/well of diH20; and 4)2×100 μl/well of 95% Ethanol. The membranes were then allowed to air dry completely before adding scintillant.
(§10) The bottom of the plate was sealed with white backing tape, 30 μl/well of Microscint 20 (Packard Instruments, catalog no. 6013621) was added. The top of the plate was sealed with clear sealing tape, and the plate then counted using the Packard TopCount with the appropriate settings for [^33P] with liquid scintillant.
(§11) The enzymatic reactions were performed as described in Step 1 of the Streptavidin Flash Plate Assay (above) utilizing […] (SEQ.ID. NO.: 16) as the substrate in place of biotin-[…].
(§12) The reaction was stopped by adding 20 μl of 0.75% H3PO4.
(§13) The bottom of the plate was sealed with white backing tape, then 30 μl/well of Microscint 20 was added. The top of the plate was sealed with clear sealing tape, and the plate counted using the Packard TopCount with the appropriate settings for [^33P] and liquid scintillant.

Akt2 = molecular target: T2, Akt2 (Homo sapiens, UniProt P31751); assay: as above; conditions: GSK3 peptide substrate
T2 construct: a middle T tag was added to the 5′ end of the full length Akt2; middle T tag (EYMPME) (N); biotin tag (from pS2neo vector); made in house; host or cells: Drosophila S2 cells
T2 sequence (P31751 whole entry): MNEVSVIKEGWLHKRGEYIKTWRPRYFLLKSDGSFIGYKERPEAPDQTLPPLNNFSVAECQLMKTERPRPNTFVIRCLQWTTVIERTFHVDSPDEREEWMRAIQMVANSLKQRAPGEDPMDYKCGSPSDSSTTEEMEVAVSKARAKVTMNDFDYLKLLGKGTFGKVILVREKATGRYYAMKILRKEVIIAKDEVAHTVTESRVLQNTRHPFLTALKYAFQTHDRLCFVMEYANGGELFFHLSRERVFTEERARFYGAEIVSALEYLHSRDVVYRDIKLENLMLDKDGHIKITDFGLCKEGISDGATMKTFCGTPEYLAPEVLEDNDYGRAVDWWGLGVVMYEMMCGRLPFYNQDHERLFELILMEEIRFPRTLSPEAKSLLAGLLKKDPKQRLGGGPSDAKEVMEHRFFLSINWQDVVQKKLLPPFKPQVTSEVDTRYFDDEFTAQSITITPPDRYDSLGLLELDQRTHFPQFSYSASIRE
Excerpt: as §1, §2, §3, §4, §5, §6, §7, §8, §9, §10, §11, §12, §13

Akt3 = molecular target: T3, Akt3 (Homo sapiens, UniProt Q9Y243); assay: as above; conditions: GSK3 peptide substrate
T3 construct: a middle T tag was added to the 5′ end of the full length Akt3 clone; middle T tag (EYMPME) (N); biotin tag (from pS2neo vector); made in house; host or cells: Drosophila S2 cells
T3 sequence (Q9Y243 whole entry): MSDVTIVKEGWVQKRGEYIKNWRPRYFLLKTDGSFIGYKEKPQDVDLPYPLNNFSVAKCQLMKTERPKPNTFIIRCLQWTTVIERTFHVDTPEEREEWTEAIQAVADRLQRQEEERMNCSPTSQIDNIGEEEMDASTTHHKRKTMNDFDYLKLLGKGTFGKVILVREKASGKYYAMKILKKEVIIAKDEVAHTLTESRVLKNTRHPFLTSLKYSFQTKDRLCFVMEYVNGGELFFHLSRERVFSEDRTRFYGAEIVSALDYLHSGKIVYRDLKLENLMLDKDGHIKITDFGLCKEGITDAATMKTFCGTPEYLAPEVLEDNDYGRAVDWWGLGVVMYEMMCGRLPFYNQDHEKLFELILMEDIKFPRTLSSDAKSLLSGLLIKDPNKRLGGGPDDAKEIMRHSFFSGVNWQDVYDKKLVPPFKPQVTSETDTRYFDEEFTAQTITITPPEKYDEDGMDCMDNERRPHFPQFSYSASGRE
Description: as §1, §4, §5, §6, §7, §8, §9
The top of the plate was sealed with clear sealing tape, and the plate then counted using the Packard TopCount with the appropriate settings for [^33P] with liquid scintillant. […]

delta PH-Akt1 = molecular target: T4, delta PH-Akt1 (Homo sapiens, UniProt P31749); assay: Akt kinase assay, phosphorylation of GSK3-derived peptide (PH domain deleted mutant); conditions: GSK3 peptide substrate; Akt1 lacking PH domain; read-out: GSK3 Peptide Substrate IC50 (μM) Akt-1 delta PH
T4 construct: PCR deletion mutagenesis was done using the full length Akt1 gene in the pS2neo vector as template; middle T tag (EYMPME) (N); biotin tag (from pS2neo vector); made in house; host or cells: Drosophila S2 cells
T4 sequence (P31749 with tags, fused parts or gaps): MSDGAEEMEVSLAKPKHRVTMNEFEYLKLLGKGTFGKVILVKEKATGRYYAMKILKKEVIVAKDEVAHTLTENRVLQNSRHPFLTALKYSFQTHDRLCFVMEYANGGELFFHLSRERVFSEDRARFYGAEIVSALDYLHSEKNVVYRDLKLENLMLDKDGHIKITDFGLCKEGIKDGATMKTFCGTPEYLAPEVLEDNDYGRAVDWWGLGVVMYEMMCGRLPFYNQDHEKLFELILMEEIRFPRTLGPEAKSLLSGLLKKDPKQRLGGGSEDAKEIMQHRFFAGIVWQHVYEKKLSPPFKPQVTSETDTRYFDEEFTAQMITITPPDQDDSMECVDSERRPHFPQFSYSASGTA
Excerpt: For the expression of a pleckstrin homology domain (PH ) deleted (Δ aa 4-129, which includes deletion of a portion of the Akt1 hinge region) version of Akt1, PCR deletion mutagenesis was done using the full length Akt1 gene in the pS2neo vector as template. […] The final PCR product was digested with KpnI and SmaI and ligated into the pS2neo full length Akt1 KpnI/Sma I cut vector, effectively replacing the 5′ end of the clone with the deleted version.
as §1, §2, §3, §4, §5, §6, §7, §8, §9, §10, §11, §12, §13

PKA catalytic subunit = molecular target: T5, PKA catalytic subunit (Bos taurus, UniProt P00517); assay: PKA assay (counter screen), Kemptide phosphorylation; conditions: read-out: Counter screens IC50 (μM) PKA
T5 construct: purchased UBI (Upstate Biotechnology) 14-114
Description: Each individual PKA assay consists of the following components:
1) 10 μl 5× PKA assay buffer (200 mM Tris pH7.5, 100 mM MgCl2, 5 mM 2-mercaptoethanol, 0.5 mM EDTA)
2) 10 μl of a 50 μM stock of Kemptide (Sigma) diluted into water
3) 10 μl ^33P-ATP (prepared by diluting 1.0 μl ^33P-ATP [10 mCi/ml] into 200 μl of a 50 μM stock of unlabeled ATP)
4) 10 μl appropriate solvent control dilution or inhibitor dilution
Assays were assembled in 96 deep-well assay plates. Components #3 and #4 were premixed and in a separate tube, a mixture containing equal volumes of components #1, #2, and #5 was prepared. The assay reaction was initiated by adding 30 μl of the components #1, #2, and #5 mixture to wells containing ^33P-ATP and inhibitor. The liquid in the assay wells was mixed and the assay reactions incubated for 20 minutes at room temperature. The reactions were stopped by adding 50 μl 100 mM EDTA and 100 mM sodium pyrophosphate and mixing.
The enzyme reaction product (phosphorylated Kemptide) was quantitated using p81 phosphocellulose 96 well filter plates (Millipore). Each well of a p81 filter plate was fill with 75 mM phosphoric acid. The wells were aspirated and 170 μl of 75 mM phosphoric acid was added to each well. […] The peptide was trapped on filter following the application of a vacuum. The filters were washed 5× by filling wells with 75 mM phosphoric acid followed by aspiration. After the final wash, the filters were allowed to air dry. 30 μl scintillation fluid was added to each well and the filters counted on a TopCount (Packard).

Compound | IC50 (active human Akt1) | IC50 (Akt2) | IC50 (Akt3) | IC50 (delta PH-Akt1) | IC50 (PKA catalytic subunit) | IC50 (PKC (mix of isoforms))
Nc1ccc(-c2nc3ccccc3nc2-c2ccc(N)cc2)cc1 [Compound 11, 2,3-bis(4-aminophenyl)-quinoxaline] | 6.1 µM | 45 µM | > 100 µM | > 50 µM | > 80 µM | > 80 µM
COc1ccc(-c2nnc3c4ccccc4c(NCC(C)(C)CN(C)C)nn23)cc1 [Compound 7, N′-[3-(4-Methoxy-phenyl)-[1,2,4]triazolo[4,3-a]phthalazin-6-yl)-2,2,N,N-tetramethyl-propane-1,3-diamine] | 3.88 µM | > 50 µM | > 50 µM | > 50 µM | > 40 µM | > 40 µM
OCCOc1nn2c(-c3ccccc3)nnc2cc1-c1ccccc1 [Compound 8, 6-(2-Hydroxyethyl)oxy-3 7-diphenyl-[1,2,4]triazolo[4,3-b]pyridazine] | 15.9 µM |  |  |  | > 40 µM | > 40 µM
6-(2-Hydroxybutyl)oxy-3,7-diphenyl-[1,2,4]triazolo[4,3-b]pyridazine [Compound 9] | 4.65 µM | > 50 µM | > 50 µM | > 50 µM | > 40 µM | > 40 µM

Now from value to compound, other results behind:

IC50 (active human Akt1) | IC50 (Akt2) | IC50 (Akt3) | IC50 (delta PH-Akt1) | IC50 (PKA catalytic subunit) | Compound | IC50 (PKC (mix of isoforms))
0.4 µM | > 50 µM | > 50 µM | > 50 µM | > 40 µM | CN(C)CC(C)(C)CNc1nn2c(-c3cccc(F)c3)nnc2cc1C1CCC1 [Compound 5, N′-(7-Cyclobutyl-3-(3-fluoro-phenyl)-[1,2,4]triazolo[4,3-b]pyridazin-6-yl)-2,2,N,N-tetramethyl-propane-1,3-diamine] | > 40 µM
1.4 µM | > 50 µM | > 50 µM | > 50 µM | > 40 µM | CN(C)CC(C)(C)CNc1nn2c(-c3ccccc3)nnc2cc1C1CCC1 [Compound 1, N′-(7-Cyclobutyl-3-phenyl-[1,2,4]triazolo[4,3-b]pyridazin-6-yl)-2,2,N,N-tetramethyl-propane-1,3-diamine] | > 40 µM
0.91 µM | > 50 µM | > 50 µM | > 50 µM | > 40 µM | CN(C)CC(C)(C)CNc1nn2c(-c3ccc(F)c(F)c3)nnc2cc1C1CCC1 [Compound 3, N′-(7-Cyclobutyl-3-(3,4-difluoro-phenyl)-[1,2,4]triazolo[4,3-b]pyridazin-6-yl)-2,2,N,N-tetramethyl-propane-1,3-diamine] | > 40 µM
10.5 µM | > 50 µM | > 50 µM | > 50 µM | > 40 µM | CN(C)CC(C)(C)CNc1nn2c(-c3ccccc3)nnc2c2ccccc12 [Compound 6, 2,2,N,N-tetramethyl-N-(3-phenyl-[1,2,4]triazolo[3,4-a]phthalazin-6-yl)-propane-1,3-diamine] | > 40 µM
2.03 µM | > 50 µM | > 50 µM | > 50 µM | > 40 µM | CN(C)CC(C)(C)CNc1nn2c(-c3ccc(F)cc3)nnc2cc1C1CCC1 [Compound 4, N′-(7-Cyclobutyl-3-(4-fluoro-phenyl)-[1,2,4]triazolo[4,3-b]pyridazin-6-yl)-2,2,N,N-tetramethyl-propane-1,3-diamine] | > 40 µM
0.42 µM | > 50 µM | > 50 µM | > 50 µM | > 40 µM | CN(C)CC(C)(C)CNc1nn2c(-c3cc(F)cc(F)c3)nnc2cc1C1CCC1 [Compound 2, N′-(7-Cyclobutyl-3-(3,5-difluoro-phenyl)-[1,2,4]triazolo[4,3-b]pyridazin-6-yl)-2,2,N,N-tetramethyl-propane-1,3-diamine] | > 40 µM
